Measurements from patent US20080287544A1, “Method for Screening Substance by Measuring PPAR DELTA Activating Effect and Agent” (Teijin Limited, priority 2001, published 2008).

Experiments:
UCP2 = conditions: J. Biol. Chem. 276, 10853-10860 (2001); cited from earlier work
UCP1 = UCP1 expression-enhancing effect in skeletal muscle cells or adipocytes; assay type: cell-based
human white adipocytes = assay: Free fatty acid β-oxidation in human white adipocytes ([9,10(n)-3H]palmitic acid, 3H2O release); assay type: cell-based; conditions: 10 μM, 48 hr, vs DMSO control
Procedure: After human fully differentiated white adipocytes had been prepared in the same manner as in Example 1, the supernatant was removed, and 500 μl of a medium which had been prepared by adding adequate amounts of oleic acid and palmitic acid to an adipocyte medium so that their concentrations were 0.67 mM and 0.33 mM, respectively, was added. Various kinds of test compounds were added to the medium in such a manner that their final concentrations were 10 μM, and subsequently, [9,10(n)-3H]palmitic acid (manufactured by Amersham Pharmacia, final concentration of 1 μCi/ml) was added to each well, and the cells were cultured at 37° C. for 48 hr. The test compounds were YM-16638 of a PPAR δ ligand, WY14643 of a PPAR α ligand, L755,507 of a β3 adrenergic receptor agonist and Rosiglitazone of a PPAR γ ligand. A control was prepared by adding DMSO, which was the solvent for the test compounds, in such a manner that the final concentration was 0.5%, and it was cultured in the same manner as the test compounds. In order to prevent the evaporation of ^3H2O produced by β-oxidation of the [9,10(n)-^3H]palmitic acid by the cells during culture, the culture plates were sealed with mini-culture filters (MS-30055) manufactured by Sumitomo Bakelite Co. Ltd.
After 48-hour culture, 200 μl of the supernatant of the medium was transferred to a 1.5-ml Eppendorf tube, 50 μl of 50% trichloroacetic acid was added, the tube was held on ice for 30 min to produce precipitates, and the mixture was centrifuged for 10 min at 15,000 rpm. Subsequently, in a 20-ml glass vial into which 500 μl of distilled water had been placed in advance, a cap-free 1.5-ml Eppendorf tube was placed, the total amount of the supernatant obtained above was placed into this Eppendorf tube, and the vial was tightly sealed with a polypropylene packing-attached lid. […] Into the ^3H2O-containing distilled water remaining in the vial, 5 ml of a liquid scintillation cocktail (Ultima Gold, manufactured by Packard) was added, and radioactivity was measured after sufficient mixing.

| SMILES | expression of UCP2 (UCP2) | UCP1 expression-enhancing effect (UCP1) | enhancement of β-oxidation in the cells (human white adipocytes) |
| --- | --- | --- | --- |
| CCCc1c(OCCCOc2ccc(OCC(=O)O)cc2)ccc(C(C)=O)c1O [L-165041, 4-(3-(2-propyl-3-hydroxy-4-acetyl-phenoxy)propyloxy)-phenoxyacetic acid] | increase the expression of UCP2 |  |  |
| CCCCC/C=C\C/C=C\C/C=C\C/C=C\CCCC(=O)O [arachidonic acid] | increase the expression of UCP2 |  |  |
| CCCCC[C@H](O)/C=C/[C@@H]1[C@H]2C/C(=C/CCCC(=O)O)C[C@H]2C[C@H]1O [carbaprostacyclin, 6,9 α-methylene-11 α, 15S-dihydroxy-prosta-5E, 13E-dien-1-oic acid] | increase the expression of UCP2 | had a UCP1 expression-enhancing effect |  |
| Cc1cccc(Nc2cc(Cl)nc(SCC(=O)O)n2)c1C [WY14643] |  | hardly exhibit a UCP1 expression enhancing effect | no enhancement |
| CN(CCOc1ccc(CC2SC(=O)NC2=O)cc1)c1ccccn1 (stereo not drawn) [Rosiglitazone] |  |  | 15% |
| CC#CCC(C)[C@H](O)/C=C/[C@@H]1[C@H]2C/C(=C/CCCC(=O)O)C[C@H]2C[C@H]1O (stereo partly drawn) [Iloprost, 5-{(E)-(1S,5S,6R,7R)-7-hydroxy-6-[(E)-(3S,4RS)-3-hydroxy-4-methyl-5-octen-6-inyl]-bicyclo[3.3.0]-octan-3-ylidene} pentenoic acid] |  | had a UCP1 expression-enhancing effect |  |
| CCCCCCNC(=O)Nc1ccc(S(=O)(=O)Nc2ccc(CCNC[C@H](O)COc3ccc(O)cc3)cc2)cc1 [L755,507] |  |  | no enhancement |
